Experimental data as given in patent publication US20240190838A1, “LZK-TARGETING DEGRADERS AND METHODS OF USE” (The U.S.A., as represented by the Secretary, Department of …, priority 2020, published 2024).

Tests used:
LZK = biological target: T1, LZK (Homo sapiens, UniProt O43283); test: In vitro kinase assay (LZK phosphorylation of MKK7); format: biochemical; set-up: purchased Carna Biosciences 09-114; conditions: 100 μM ATP
T1 sequence (O43283 1-966): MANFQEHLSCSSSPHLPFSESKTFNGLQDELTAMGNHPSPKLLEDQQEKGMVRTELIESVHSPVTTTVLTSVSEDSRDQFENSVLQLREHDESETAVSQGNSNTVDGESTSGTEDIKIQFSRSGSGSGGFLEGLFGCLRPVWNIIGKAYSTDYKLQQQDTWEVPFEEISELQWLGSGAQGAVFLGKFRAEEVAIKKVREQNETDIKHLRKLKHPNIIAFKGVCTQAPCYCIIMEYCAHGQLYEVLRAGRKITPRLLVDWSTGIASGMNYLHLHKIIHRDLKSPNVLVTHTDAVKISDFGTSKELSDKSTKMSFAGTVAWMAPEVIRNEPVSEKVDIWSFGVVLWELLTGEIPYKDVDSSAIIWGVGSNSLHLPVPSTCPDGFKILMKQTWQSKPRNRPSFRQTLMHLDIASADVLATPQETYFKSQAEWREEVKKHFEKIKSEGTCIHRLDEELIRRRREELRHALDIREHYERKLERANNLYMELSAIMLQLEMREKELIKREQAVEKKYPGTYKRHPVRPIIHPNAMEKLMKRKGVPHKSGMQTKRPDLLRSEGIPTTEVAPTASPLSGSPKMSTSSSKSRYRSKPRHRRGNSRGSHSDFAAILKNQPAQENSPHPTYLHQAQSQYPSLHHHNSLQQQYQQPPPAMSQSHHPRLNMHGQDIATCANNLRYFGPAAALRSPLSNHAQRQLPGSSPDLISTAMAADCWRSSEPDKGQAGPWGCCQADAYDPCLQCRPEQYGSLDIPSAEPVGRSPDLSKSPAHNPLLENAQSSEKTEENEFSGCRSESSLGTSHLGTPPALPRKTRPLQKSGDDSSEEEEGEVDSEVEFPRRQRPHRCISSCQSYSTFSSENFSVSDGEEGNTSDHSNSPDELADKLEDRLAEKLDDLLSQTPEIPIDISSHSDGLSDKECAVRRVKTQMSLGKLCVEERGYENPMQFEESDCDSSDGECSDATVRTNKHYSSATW
Description: The assay was performed with 100 μM ATP at 37° C. for 30 minutes. Following the addition of 4× reducing SDS sample buffer, proteins were resolved by sodium dodecyl sulfate-polyacrylamide gel electrophoresis (SDS-PAGE) and immunoblot analysis was performed as stated previously.

CAL33 xenograft = test: HNSCC CAL33 xenograft mouse model; format: in vivo; conditions: 100 mg/kg, b.i.d.
Description: For the HNSCC xenograft mouse model, 2×10^6 CAL33 cells were injected subcutaneously into the right posterior flank of 6-8-week-old immunodeficient NOD-scid IL2Rgamma^null (NSG) female mice (obtained from the NCI Center for Cancer Research Animal Resource Program). […]. The animals were treated for approximately 4-8 weeks, with study endpoints of over 20% body weight loss, tumor volume exceeding 2.0 cm^3 in diameter, or significant (greater than 80%) tumor regression observed with specific treatment. […] Body weights and tumor size (tumor volume=[length ×width ×height]/2) were measured twice weekly. At the endpoint of each study, tumors were harvested, cleaned, weighed, and photographed for analysis.
For the IHC analysis for the studies involving the CAL33 xenograft and PDX 391396-364-R mousemodels, staining was performed by the Molecular Histopathology Laboratory (MHL) at the National Cancer Institute at Frederick. Briefly, tissues were fixed in buffered 10% formalin, embedded in paraffin, and sectioned at 5 μm before staining with hematoxylin and eosin (H&E). Additionally, sections were stained using the Leica Biosystems' BondRX auto-stainer with an antibody for cleaved caspase-3 (Cell Signaling Technology, #9661, 1:100, 60 minutes). Slides were blinded and scanned using an Aperio AT2 scanner (Leica Biosystems). Image analysis wasperformed using HALO imaging software (Indica Labs). The shown tumor regions exclude artifacts and necrotic regions. IHC analysis performed by Crown Biosciences San Diego for the PDX HN5120 study was similar except for the cleaved caspase-3 antibody (Cell Signaling Technology, #96645, 1:500, 20 minutes).

[1] = Rat liver microsomal (RLM) stability assay; format: in vitro ADME; conditions: rat liver microsomes; read-out: RLM Stability (t1/2)

Row | SMILES | in vitro phosphorylation of MKK7 (LZK) | cleaved caspase-3 expression (IHC) in tumors (CAL33 xenograft) | body weight (CAL33 xenograft; five days on/two days off) | tumor growth (CAL33 xenograft; five days on/two days off, oral gavage, n=10) | half-life [1]
1 | N#Cc1ccnc(Nc2cc(C3CCN(C4COC4)CC3)cc(N3CCC(F)(F)C3)n2)c1 [GNE-3511] | decreased in vitro phosphorylation of MKK7 | increase in cleaved caspase-3 expression | decreases in body weight | tumor growth was suppressed | 
2 | Cc1ncsc1-c1ccc([C@H](C)NC(=O)[C@@H]2C[C@@H](O)CN2C(=O)[C@@H](NC(=O)CCCCCCC(=O)N2CCC(c3cc(Nc4cc(C#N)ccn4)nc(N4CCC(F)(F)C4)c3)CC2)C(C)(C)C)cc1 [Compound 3] |  |  |  |  | > 30 min
